Assay results as given in ChEMBL document CHEMBL1142675, “CH...O and CH...N hydrogen bonds in ligand design: a novel quinazolin-4-ylthiazol-2-ylamine protein kinase inhibitor” (J Med Chem, 2005).

Molecular target: Glycogen synthase kinase-3 (Homo sapiens, UniProt P49840+P49841)
Test: Inhibition of Glycogen synthase kinase-3
Format: protein assay

| Ki [nM] | SMILES |
| --- | --- |
| > 2000 | Cc1cc(Nc2nc(-c3ccccc3)nc3ccccc23)no1 |
| 2500 | Cc1cc(Nc2cc(-c3ccccc3)nc3ccccc23)[nH]n1 |
| 23000 | Cc1n[nH]c(Nc2nc(-c3ccccc3)nc3ccccc23)n1 |
| 150 | Cc1cnc(Nc2nc(-c3ccccc3)nc3ccccc23)s1 |
| 110 | c1ccc(-c2nc(Nc3cc[nH]n3)c3ccccc3n2)cc1 |
| 24 | Cc1cc(Nc2nc(-c3ccccc3)nc3ccccc23)n[nH]1 |
| 250 | c1ccc(-c2nc(Nc3nc[nH]n3)c3ccccc3n2)cc1 |
